Data reported in patent publication US5223526A, “Pyrazole carboxanilide fungicides and use” (Monsanto Company, priority 1992, dated 1993).

Assays:
succinate dehydrogenase = target: T1, succinate dehydrogenase (Botrytis cinerea, UniProt A0A384J5E4+A0A384J8V8+A0A384JHJ5); assay: Enzyme inhibition: succinate dehydrogenase activity in Botrytis cinerea mitochondria (DCPIP reduction); type: biochemical; settings: concentration required to inhibit the rate of DCPIP reduction by 50%; Botrytis cinerea isolate Nick mitochondria; read-out: I50 (μM conc.)
T1 construct: succinate-DCPIP reductase assay with KCN
T1 sequence (A0A384J5E4 1-300): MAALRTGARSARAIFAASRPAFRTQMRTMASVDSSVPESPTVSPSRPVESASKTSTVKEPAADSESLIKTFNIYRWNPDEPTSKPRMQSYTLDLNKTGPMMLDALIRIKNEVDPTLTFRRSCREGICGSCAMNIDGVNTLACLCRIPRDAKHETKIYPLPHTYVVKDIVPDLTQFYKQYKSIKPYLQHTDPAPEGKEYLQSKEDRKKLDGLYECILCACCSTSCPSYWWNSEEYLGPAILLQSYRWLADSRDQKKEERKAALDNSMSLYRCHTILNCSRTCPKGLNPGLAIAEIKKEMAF
T1 sequence (A0A384J8V8 1-189): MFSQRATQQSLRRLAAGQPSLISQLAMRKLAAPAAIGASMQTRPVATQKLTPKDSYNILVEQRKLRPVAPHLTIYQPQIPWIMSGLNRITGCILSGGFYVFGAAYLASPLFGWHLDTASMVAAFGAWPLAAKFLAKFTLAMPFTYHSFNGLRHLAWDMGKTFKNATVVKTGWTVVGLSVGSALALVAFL
T1 sequence (A0A384JHJ5 1-192): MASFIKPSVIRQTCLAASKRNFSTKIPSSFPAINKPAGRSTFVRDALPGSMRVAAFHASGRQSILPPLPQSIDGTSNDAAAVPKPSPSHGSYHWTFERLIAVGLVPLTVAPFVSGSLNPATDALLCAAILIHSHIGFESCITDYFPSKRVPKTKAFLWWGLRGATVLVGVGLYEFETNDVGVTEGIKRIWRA
T1 sequence (A0A384K456 1-647 partner): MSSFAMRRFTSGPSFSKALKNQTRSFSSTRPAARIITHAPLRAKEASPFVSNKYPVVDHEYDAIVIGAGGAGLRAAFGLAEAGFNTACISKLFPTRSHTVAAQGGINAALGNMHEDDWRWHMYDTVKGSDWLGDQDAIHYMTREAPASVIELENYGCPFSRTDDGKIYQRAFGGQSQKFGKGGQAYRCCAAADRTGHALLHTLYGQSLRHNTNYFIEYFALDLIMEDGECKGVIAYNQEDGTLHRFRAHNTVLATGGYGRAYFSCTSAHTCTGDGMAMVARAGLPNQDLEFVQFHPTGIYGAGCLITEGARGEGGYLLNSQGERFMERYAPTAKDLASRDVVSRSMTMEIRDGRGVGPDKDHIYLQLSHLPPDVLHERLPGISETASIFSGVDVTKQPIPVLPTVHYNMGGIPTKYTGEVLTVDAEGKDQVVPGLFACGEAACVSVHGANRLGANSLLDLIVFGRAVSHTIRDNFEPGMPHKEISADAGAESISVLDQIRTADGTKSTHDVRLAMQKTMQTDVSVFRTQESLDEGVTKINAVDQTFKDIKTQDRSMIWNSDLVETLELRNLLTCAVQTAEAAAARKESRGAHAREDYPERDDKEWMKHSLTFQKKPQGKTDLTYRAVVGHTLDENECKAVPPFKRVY
Procedure, shortened: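 Crude mitochondria from Botrytis cinerea isolate Nick mycelia, prepared by bead-beating and differential centrifugation, started reactions. SDH activity followed as DCPIP reduction at 600 nm in 50 mM K-phosphate pH 7.2 with 1 mM KCN, 45 μM DCPIP, 17 mM succinate, 1% acetone. I50 from semilog inhibition plots, corrected for succinate-free rates.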

Botrytis cinerea [1] = assay: Eggplant grey mold; type: in vivo; set-up: scale not given here; settings: inoculated 24 h later, rated after 3-4 days; for Disease Control Rating at 500 ppm: eggplant sprayed with 500 ppm; for Disease Control Rating at 20 ppm: eggplant sprayed with 20 ppm; for Disease Control Rating at 100 ppm: eggplant sprayed with 100 ppm
Procedure, shortened: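 Protective test: compound formulations (2:3 acetone:water, 0.5% Tween 20; 500, 100 or 20 ppm) sprayed on 14-18-day-old plants, with spore inoculum (4×10^6 spore/mL) applied a day later. Disease control rated on Botrytis lesions after 3-4 days at 23 °C and 100% humidity.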

Botrytis cinerea [2] = assay: Vine grey mold (grape berries); type: in vivo; settings: average of six berries, 7-10 days; for pest or weed control at 50 ppm: grape berries treated with 50 ppm, read-out: % DISEASE CONTROL 50 ppm; for pest or weed control at 200 ppm: grape berries treated with 200 ppm, read-out: % DISEASE CONTROL 200 ppm
Procedure, shortened: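 Preventive berry test: compound at 50 or 200 ppm (acetone/water, 0.05% Tween 20) applied one day before inoculation with 10^6 spores/mL Botrytis conidia. After 7-10 days at 20 °C under 12 h light, infected surface area rated; disease control expressed as percent reduction from control mean; repeated-test values averaged.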

Rhizoctonia solani = assay: Rice sheath blight; type: in vivo; set-up: scale not given here; settings: inoculated two days later, rated after 7 days, average of five plants; for Disease Control Rating at 0.5 mg/mL: foliage and soil sprayed with 0.5 mg/mL; for Disease Control Rating at 0.02 mg/mL: foliage and soil sprayed with 0.02 mg/mL; for Disease Control Rating at 0.1 mg/mL: foliage and soil sprayed with 0.1 mg/mL
Procedure, shortened: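 Rice plants 11–15 days old had foliage and soil sprayed with 0.5, 0.1 or 0.02 mg/mL Compound A in water/acetone/Tween 20, then kept in flooded trays. Two days later, rice-grain Rhizoctonia solani inoculum went to plant bases; disease control scored versus untreated after 7 days at 25 °C, high humidity, averaging five plants.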

SMILES: Cn1cc(C(=O)Nc2ccccc2OCCC2CCCC2)c(C(F)F)n1 [Example 54, 1H-pyrazole-4-carboxamide, N-[2-(2-cyclopentylethoxy)phenyl]-3-(difluoromethyl)-1-methyl-]
- IC50 (succinate dehydrogenase): 0.011 µM
- Disease Control Rating at 500 ppm (Botrytis cinerea [1]): 0
- pest or weed control at 50 ppm (Botrytis cinerea [2]): 2%
- pest or weed control at 200 ppm (Botrytis cinerea [2]): 2%
- Disease Control Rating at 0.5 mg/mL (Rhizoctonia solani): 2

SMILES: Cn1cc(C(=O)Nc2ccccc2OCCC2CCCC2)c(C(F)(F)F)n1 [Example 55, 1H-pyrazole-4-carboxamide, N-[2-(2-cyclopentylethoxy)phenyl]-1-methyl-3-(trifluoromethyl)-]
- IC50 (succinate dehydrogenase): 0.027 µM
- Disease Control Rating at 500 ppm (Botrytis cinerea [1]): 0
- pest or weed control at 50 ppm (Botrytis cinerea [2]): 11%
- pest or weed control at 200 ppm (Botrytis cinerea [2]): 0%
- Disease Control Rating at 0.5 mg/mL (Rhizoctonia solani): 0

SMILES: Cn1cc(C(=O)Nc2ccccc2C2CCCCC2)c(I)n1 [Example 56, 1H-pyrazole-4-carboxamide, N-[2-(cyclohexyl)phenyl]-3-iodo-1-methyl-]
- IC50 (succinate dehydrogenase): 0.013 µM
- Disease Control Rating at 500 ppm (Botrytis cinerea [1]): 0
- pest or weed control at 50 ppm (Botrytis cinerea [2]): 46%
- pest or weed control at 200 ppm (Botrytis cinerea [2]): 70%
- Disease Control Rating at 0.5 mg/mL (Rhizoctonia solani): 0

SMILES: Cn1cc(C(=O)Nc2ccccc2C2CCCCCC2)c(I)n1 [Example 57, 1H-pyrazole-4-carboxamide, N-[2-(cycloheptyl)phenyl]-3-iodo-1-methyl-]
- IC50 (succinate dehydrogenase): 0.0047 µM
- Disease Control Rating at 500 ppm (Botrytis cinerea [1]): 0
- pest or weed control at 50 ppm (Botrytis cinerea [2]): 53%
- pest or weed control at 200 ppm (Botrytis cinerea [2]): 72%
- Disease Control Rating at 0.5 mg/mL (Rhizoctonia solani): 0

SMILES: Cn1cc(C(=O)Nc2ccccc2C2CCCCC2)c(OC(F)F)n1 [Example 59]
- IC50 (succinate dehydrogenase): 1 µM
- Disease Control Rating at 500 ppm (Botrytis cinerea [1]): 0
- pest or weed control at 50 ppm (Botrytis cinerea [2]): 0%
- pest or weed control at 200 ppm (Botrytis cinerea [2]): 0%
- Disease Control Rating at 0.5 mg/mL (Rhizoctonia solani): 0

SMILES: Cn1cc(C(=O)Nc2ccccc2C2CCCCCC2)c(OC(F)F)n1 [Example 60]
- IC50 (succinate dehydrogenase): 0.35 µM
- Disease Control Rating at 500 ppm (Botrytis cinerea [1]): 0
- pest or weed control at 50 ppm (Botrytis cinerea [2]): 0%
- pest or weed control at 200 ppm (Botrytis cinerea [2]): 0%
- Disease Control Rating at 0.5 mg/mL (Rhizoctonia solani): 0

SMILES: O=C(Nc1ccccc1C1CCCCC1)c1cn(C(F)F)nc1C(F)F [Example 61, 1H-pyrazole-4-carboxamide, N-(2-cyclohexylphenyl)-1,3-bis(difluoromethyl)-]
- IC50 (succinate dehydrogenase): 0.19 µM
- Disease Control Rating at 500 ppm (Botrytis cinerea [1]): 1
- pest or weed control at 50 ppm (Botrytis cinerea [2]): 0%
- pest or weed control at 200 ppm (Botrytis cinerea [2]): 0%
- Disease Control Rating at 0.5 mg/mL (Rhizoctonia solani): 0

SMILES: Cn1cc(C(=O)Nc2ccccc2C2CCCCC2)c([N+](=O)[O-])n1 [Example 62, 1H-pyrazole-4-carboxamide, N-(2-cyclohexylphenyl]-1-methyl-3-nitro-]
- IC50 (succinate dehydrogenase): 0.29 µM
- Disease Control Rating at 20 ppm (Botrytis cinerea [1]): 0
- Disease Control Rating at 100 ppm (Botrytis cinerea [1]): 0
- Disease Control Rating at 500 ppm (Botrytis cinerea [1]): 1
- pest or weed control at 50 ppm (Botrytis cinerea [2]): 0%
- pest or weed control at 200 ppm (Botrytis cinerea [2]): 0%
- Disease Control Rating at 0.5 mg/mL (Rhizoctonia solani): 0

SMILES: Cn1cc(C(=O)Nc2ccccc2C2CCCCCC2)c(Br)n1 [Example 63, 1H-pyrazole-4-carboxamide, 3-bromo-N-(2-cycloheptylphenyl)-1-methyl-]
- IC50 (succinate dehydrogenase): 0.0063 µM
- Disease Control Rating at 500 ppm (Botrytis cinerea [1]): 1
- pest or weed control at 50 ppm (Botrytis cinerea [2]): 34%
- pest or weed control at 200 ppm (Botrytis cinerea [2]): 65%
- Disease Control Rating at 0.02 mg/mL (Rhizoctonia solani): 2
- Disease Control Rating at 0.1 mg/mL (Rhizoctonia solani): 3
- Disease Control Rating at 0.5 mg/mL (Rhizoctonia solani): 3

SMILES: Cn1cc(C(=O)Nc2ccccc2C2CCCC2)c(Br)n1 [Example 64, 1H-pyrazole-4-carboxamide, 3-bromo-N-(2-cyclopentylphenyl)-1-methyl-]
- IC50 (succinate dehydrogenase): 0.047 µM
- Disease Control Rating at 20 ppm (Botrytis cinerea [1]): 1
- Disease Control Rating at 100 ppm (Botrytis cinerea [1]): 1
- Disease Control Rating at 500 ppm (Botrytis cinerea [1]): 2
- pest or weed control at 50 ppm (Botrytis cinerea [2]): 10%
- pest or weed control at 200 ppm (Botrytis cinerea [2]): 28%
- Disease Control Rating at 0.02 mg/mL (Rhizoctonia solani): 1
- Disease Control Rating at 0.1 mg/mL (Rhizoctonia solani): 3
- Disease Control Rating at 0.5 mg/mL (Rhizoctonia solani): 3

SMILES: Cc1nn(C)c(C)c1C(=O)Nc1ccccc1C1CCCCCC1 [Example 66, 1H-pyrazole-4-carboxamide, N-(2-cycloheptylphenyl)-1,3,5-trimethyl-]
- IC50 (succinate dehydrogenase): 0.048 µM
- Disease Control Rating at 20 ppm (Botrytis cinerea [1]): 0
- Disease Control Rating at 100 ppm (Botrytis cinerea [1]): 0
- Disease Control Rating at 500 ppm (Botrytis cinerea [1]): 2
- pest or weed control at 50 ppm (Botrytis cinerea [2]): 32%
- pest or weed control at 200 ppm (Botrytis cinerea [2]): 35%
- Disease Control Rating at 0.02 mg/mL (Rhizoctonia solani): 3
- Disease Control Rating at 0.1 mg/mL (Rhizoctonia solani): 3
- Disease Control Rating at 0.5 mg/mL (Rhizoctonia solani): 3

SMILES: Cn1cc(C(=O)Nc2ccccc2C2(C)CCCC2)c(C(F)(F)F)n1 [Example 67, 1H-pyrazole-4-carboxamide, 1-methyl-N-[2-(1-methylcyclopentyl)phenyl]-3-(trifluoromethyl)-]
- IC50 (succinate dehydrogenase): 0.056 µM
- Disease Control Rating at 20 ppm (Botrytis cinerea [1]): 0
- Disease Control Rating at 100 ppm (Botrytis cinerea [1]): 1
- Disease Control Rating at 500 ppm (Botrytis cinerea [1]): 2
- pest or weed control at 50 ppm (Botrytis cinerea [2]): 31%
- pest or weed control at 200 ppm (Botrytis cinerea [2]): 0%
- Disease Control Rating at 0.5 mg/mL (Rhizoctonia solani): 2

SMILES: Cn1cc(C(=O)Nc2ccccc2C2CCCCCCC2)c(I)n1 [Example 68, 1H-pyrazole-4-carboxamide, N-(2-cyclooctylphenyl)-3-iodo-1-methy1-]
- IC50 (succinate dehydrogenase): 0.0037 µM
- Disease Control Rating at 500 ppm (Botrytis cinerea [1]): 1
- pest or weed control at 50 ppm (Botrytis cinerea [2]): 78%
- pest or weed control at 200 ppm (Botrytis cinerea [2]): 89%
- Disease Control Rating at 0.02 mg/mL (Rhizoctonia solani): 2
- Disease Control Rating at 0.1 mg/mL (Rhizoctonia solani): 3
- Disease Control Rating at 0.5 mg/mL (Rhizoctonia solani): 3

SMILES: Cn1cc(C(=O)Nc2ccccc2C2CCCC2)c(I)n1 [Example 69, 1H-pyrazole-4-carboxamide, N-(2-cyclopentylphenyl)-3-iodo-1-methy1-]
- IC50 (succinate dehydrogenase): 0.033 µM
- Disease Control Rating at 500 ppm (Botrytis cinerea [1]): 0
- pest or weed control at 50 ppm (Botrytis cinerea [2]): 30%
- pest or weed control at 200 ppm (Botrytis cinerea [2]): 70%
- Disease Control Rating at 0.02 mg/mL (Rhizoctonia solani): 0
- Disease Control Rating at 0.1 mg/mL (Rhizoctonia solani): 2
- Disease Control Rating at 0.5 mg/mL (Rhizoctonia solani): 3

SMILES: Cn1cc(C(=O)Nc2ccccc2O[C@H]2CC[C@@H](C)CC2)c(C(F)(F)F)n1 [Example 72, 1H-pyrazole-4-carboxamide, 1-methyl-N-[2-[(4-methylcyclohexyl)oxy]phenyl]-3-(trifluoromethyl)-, cis-]
- IC50 (succinate dehydrogenase): 0.031 µM
- Disease Control Rating at 500 ppm (Botrytis cinerea [1]): 0
- pest or weed control at 50 ppm (Botrytis cinerea [2]): 0%
- pest or weed control at 200 ppm (Botrytis cinerea [2]): 0%
- Disease Control Rating at 0.5 mg/mL (Rhizoctonia solani): 0

SMILES: Cn1cc(C(=O)Nc2ccccc2O[C@H]2CC[C@H](C)CC2)c(C(F)(F)F)n1 [Example 73, 1H-pyrazole-4-carboxamide, 1-methyl-N-[2-[(4-methylcyclohexyl)oxy]phenyl]-3-(trifluoromethyl)-, trans-]
- IC50 (succinate dehydrogenase): 0.0076 µM
- Disease Control Rating at 500 ppm (Botrytis cinerea [1]): 0
- pest or weed control at 50 ppm (Botrytis cinerea [2]): 8%
- pest or weed control at 200 ppm (Botrytis cinerea [2]): 0%
- Disease Control Rating at 0.5 mg/mL (Rhizoctonia solani): 2

SMILES: C[C@@H]1CCC[C@H](C)[C@@H]1Oc1ccccc1NC(=O)c1cn(C)nc1C(F)(F)F [Example 74, 1H-pyrazole-4-carboxamide, 1-methyl-N-[2-[(2,6-dimethylcyclohexyl)oxy]phenyl]-3-(trifluoromethyl)-, (lalpha,2alpha,6alpha)-]
- IC50 (succinate dehydrogenase): 0.09 µM
- Disease Control Rating at 20 ppm (Botrytis cinerea [1]): 0
- Disease Control Rating at 100 ppm (Botrytis cinerea [1]): 0
- Disease Control Rating at 500 ppm (Botrytis cinerea [1]): 1
- pest or weed control at 50 ppm (Botrytis cinerea [2]): 4%
- pest or weed control at 200 ppm (Botrytis cinerea [2]): 0%
- Disease Control Rating at 0.5 mg/mL (Rhizoctonia solani): 0
